In PubChem BioAssay (NCI):
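Method: 48-hour compound exposure of cells in 96-well plates, five concentrations, linear interpolation of endpoints. GI50 is the concentration that inhibits growth by half. Definition used: TGI = concentration required for complete inhibition of growth.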

Assays:
Assay in all cases: NCI anticancer screen, dose series, 48 h
[1] = system: HCT-116 colon
[2] = system: MDA-MB-231 breast
[3] = system: NCI-H226 lung
[4] = system: HT29 colon
[5] = system: COLO 205 colon
[6] = system: CCRF-CEM leukemia
[7] = system: SK-MEL-5 melanoma
[8] = system: HS 578T breast
[9] = system: SF-295 CNS
[10] = system: HCC-2998 colon
[11] = system: U251 CNS
[12] = system: DU-145 prostate
[13] = system: CAKI-1 renal
[14] = system: SW-620 colon
[15] = system: RPMI-8226 leukemia
[16] = system: SK-MEL-2 melanoma
[17] = system: SNB-75 CNS
[18] = system: M14 melanoma
[19] = system: TK-10 renal
[20] = system: MOLT-4 leukemia
[21] = system: OVCAR-5 ovarian
[22] = system: A498 renal
[23] = system: OVCAR-3 ovarian
[24] = system: NCI-H23 lung
[25] = system: KM12 colon
[26] = system: SF-268 CNS
[27] = system: NCI/ADR-RES ovarian
[28] = system: EKVX NSCLC

Work on `O=C1NN2CC(c3ccccc3)=NN=C2c2ccccc21` yielded a GI50 [1] of 17.4 µM, a TGI [1] of 36.7 µM and a GI50 [2] of 26.4 µM. It also gave a TGI [2] of 79.1 µM, a GI50 [3] of 22.8 µM and a TGI [3] of 57.8 µM. For the same compound, the GI50 [4] was 24.7 µM, the TGI [4] was 49 µM and the GI50 [5] was 20.3 µM. The TGI [5] was 41 µM, the GI50 [6] was 22.9 µM and the TGI [6] was 55.7 µM. It also gave a GI50 [7] of 26.8 µM, a TGI [7] of 67.2 µM and a GI50 [8] of 68 µM. The TGI [8] was over 100 µM, the GI50 [9] was 32.8 µM and the TGI [9] was over 100 µM. The GI50 [10] was 15.6 µM, the TGI [10] was 36.2 µM and the GI50 [11] was 18 µM. For the same compound, the TGI [11] was 33.9 µM, the GI50 [12] was 31.3 µM and the TGI [12] was 99 µM. The GI50 [13] was 33.5 µM, the TGI [13] was over 100 µM and the GI50 [14] was 33 µM. The TGI [14] was over 100 µM, the GI50 [15] was 19.4 µM and the TGI [15] was 41.7 µM. It also gave a GI50 [16] of 52.8 µM, a TGI [16] of over 100 µM and a GI50 [17] of over 100 µM. For the same compound, the TGI [17] was over 100 µM, the GI50 [18] was 21.9 µM and the TGI [18] was 48.9 µM. The GI50 [19] was 31.5 µM, the TGI [19] was 98.3 µM and the GI50 [20] was 11.1 µM. The TGI [20] was over 100 µM, the GI50 [21] was 37.9 µM and the TGI [21] was over 100 µM. For the same compound, the GI50 [22] was 87.5 µM, the TGI [22] was over 100 µM and the GI50 [23] was 20.1 µM. The TGI [23] was 48.2 µM, the GI50 [24] was 17.7 µM and the TGI [24] was 38.7 µM. It also gave a GI50 [25] of 31.9 µM, a TGI [25] of over 100 µM and a GI50 [26] of 26.8 µM. It also gave a TGI [26] of 82.3 µM, a GI50 [27] of 17.5 µM and a TGI [27] of 42.7 µM. It also gave a GI50 [28] of 31.3 µM and a TGI [28] of over 100 µM.
